What is called viability is the share of living cells, or the viability signal relative to a control.

The record followed here is US20220016271A1, “METHODS FOR TREATING CANCER” (The Brigham and Women`s Hospital, Inc., priority 2018, published 2022).

The subject of one assay is A549 (p53 wild type). The class given is cell-based. The note with it: p53 mRNA 1 μg/mL; metformin 4 or 6 mg/mL (FIG. 60). The protocol: Experimental Methods. […] Then, the cell viabilities of these cells were measured by Alamar blue assay. […] The cells without receiving any treatments were labeled as the “Control”.
The test system of assay [1] is p53-null H1299 cells. Put plainly: Cell viability by AlamarBlue assay. The class given is cell-based, human. The protocol: (§1) Cell viability and transfection efficiency of EGFP-mRNA NPs. The p53-null Hep3B cells or H1299 cells were plated in 96-well plates at a density of 3×10^3 cells per well. […] Lip2k was used as a positive control for transfection efficiency comparison with the NPs. Cell viability was tested by AlamarBlue assay, which is a non-toxic assay that can continuously check real-time cell proliferation through a microplate reader (TECAN, Infinite M200 Pro). Absorbance was examined by a 96-well SpectraMax plate reader (Molecular Devices) at 545 nm and 590 nm. To measure the transection efficiency, cells were treated with EGFP-mRNA by NPs or Lip2k for 24 hours, detached with 2.5% EDTAtrypsin, and collected in PBS solution, followed by evaluating GFP expression using flow cytometry (BD Biosystems). The percentages of EGFP-positive cells were calculated and analyzed by Flowjo software.
(§2) Combination index (CI) calculation.
(Resazurin is reduced to fluorescent resorufin, in cell work by metabolically active cells.)

Assay [2] relates to p53-null Hep3B cells. The assay can be described thus: Cell viability by AlamarBlue assay. The class given is cell-based, human. How it is done:
as §1, §2

A further assay concerns H1299 cells. The assay can be described thus: Apoptosis detection (Annexin V/PI, flow cytometry). The class given is cell-based, human. To be noted: AnnV/PI co-staining. The protocol:
(§3) Apoptosis and cell cycle detection in vitro. We used an FITC Annexin V/Propidium iodide (PI) apoptosis detection kit (BD Biosciences) to detect apoptosis. In brief, 1×10^6 cells were seeded into 6-well plates. After attachment overnight, cells were treated with p53-mRNA NPs for 24 hours before being mixed with 1 ml fresh medium and continuing to culture for another 24 h. All the attached cells together with the floating cells in the medium were harvested, washed with PBS twice, and dispersed in 1× binding buffer solution (ice-cold) at a concentration of 1×10^6 cells/ml. 5 μl of FITC Annexin V and 5 μl of PI were further mixed with 100 μl of the cell suspension. We then incubated the mixture at room temperature for 15 min in a dark environment and performed analysis using the FACS Calibur Flow Cytometer (BD Biosystems). Cells were incubated for 48 hours with empty NPs, naked p53-mRNA, or p53-mRNANPs washed in PBS and fixed with 70% ethanol overnight, then washed in PBS twice and incubated with PI for 30 minutes at 37° C.; cell-cycle fractions (percentage of cells with fractional DNA content in G1, S, and G2/M phases of the cycle) were estimated by flow cytometry and analyzed by Flowjo software.
For orientation: In flow cytometry, cells or beads pass a laser one at a time.

The next assay relates to Hep3B cells. Put plainly: Apoptosis detection (Annexin V/PI, flow cytometry). The class given is cell-based, human. The note with it: AnnV/PI co-staining. How it is done:
as §3

Assay [3] concerns p53-null Hep3B cells. The assay can be described thus: Western blot, IF, TEM and GFP-LC3B CLSM analysis of p53, cell cycle, apoptosis, mTOR and autophagy pathways. The class given is cell-based, human. How it is done:
(§4) Western blot assay. Cells or dissected tumors in each group were lysed in a lysis buffer (1 mM EDTA, 20 mM Tris-HCl pH 7.6, 140 mM NaCl, 1% aprotinin, 1% NP-40, 1 mM phenylmethylsulphonyl fluoride, and 1 mM sodium vanadate), and supplemented with protease inhibitor cocktail (Cell Signaling Technology). Protein concentration was detected by a bicinchoninic acid (BCA) Protein Assay Kit (Pierce). 25 μg of proteins were loaded on 6-12% precast gels (Invitrogen), and then transferred to Immobilon PVDF membranes (Bio-Rad, 162-0176 and 162-0177). The transferred membranes were blocked with 5% bovine serum albumin (BSA) in TBST (150 mM NaCl, 50 mM Tris-HCl at pH 7.4, and 0.1% Tween 20) for 1 hour at room temperature, and were further incubated with primary antibodies overnight at 4° C. The immunoreactive bands were detected with appropriate HRP-conjugated secondary antibodies. Band density was detected by enhanced chemiluminescence (ECL) detection system (Amersham/GE Healthcare).
Immunofluorescent staining and TEM detection. Cells or tumor tissues were fixed with 4% paraformaldehyde (Electron Microscopy Sciences) at room temperature for 15 min, followed by permeabilization in 0.2% Triton X-100-PBS for 10 min. Samples were further incubated with PBS blocking buffer (containing 2% BSA, 2% normal goat serum, and 0.2% gelatin) at room temperature for 30 min. Afterwards, the samples were incubated with primary antibody overnight at 4° C., washed with PBS, and incubated in goat anti-rat-Alexa Fluor 647 (Molecular Probes) in blocking buffer (1:1000 dilution) at room temperature for 60 min. Stained samples were washed with PBS, nuclei were stained using Hoechst 33342 (Molecular Probes-Invitrogen, H1399, 1:2000 dilution in PBS), and the samples were mounted on slides with Prolong Gold antifade mounting medium (Life Technologies). […]
(§5) Quantification of GFP-LC3B puncta. […] A confocal fluorescence microscope was used to observe the fluorescence of GFP-LC3B. To quantify the extent of autophagy, cells showing accumulation of GFP-LC3B in vacuoles or dots were counted. […]

Assay [4] has as its system p53-null H1299 cells. Put plainly: Western blot, IF, TEM and GFP-LC3B CLSM analysis of p53, apoptosis, mTOR and autophagy pathways. The class given is cell-based, human. The protocol: as §4
Immunofluorescent staining and TEM detection. […]
as §5
On the technique in general: Immunoblotting shows a protein as a band on a membrane.

For assay [5], the system named is p53-null Hep3B xenografts. The assay can be described thus: In vivo therapeutic efficacy in p53-null HCC xenograft tumor model. The note with it: mRNA 750 μg/kg IV; everolimus 5 mg/kg oral; every three days, six treatments. Details: species or system athymic nude mice. How it is done:
In vivo therapeutic efficacy in p53-null HCC xenograft tumor model. […] The day that first treatment was performed was designated as Day 0. […] The body weights of all the mice were also recorded over this period.
as §2

The subject of assay [6] is p53-null Hep3B tumor sections. Put plainly: In vivo mechanisms (IF, IHC, TUNEL, WB of tumor sections). More on the design: species or system athymic nude mice. To be noted: mouse. How it is done: In vivo mechanisms underlying the p53-mRNA NP-mediated sensitization to everolimus. […] The mice were sacrificed at 12, 24, 48, or 60 hours after the last injection of p53-mRNANPs, and the tumors were harvested for sections. Mice bearing p53-null Hep3B liver xenografts and intravenously injected with PBS were used as controls and sacrificed at 60 hours after the last injection. The expression of p53 and C-CAS3 was monitored via IF detection. Moreover, tumor sections from both the PBS group and p53-mRNANP group (60 hours after the last injection) were analyzed by IHC. The expression of p53, tumor cell apoptosis markers (BAX, C-CAS3), and proliferation markers (Ki67 and PCNA) was further assessed.
Western blot assay. Cells or dissected tumors in each group were lysed in a lysis buffer (1 mM EDTA, 20 mM Tris-HCl pH 7.6, 140 mM NaCl, 1% aprotinin, 1% NP-40, 1 mM phenylmethylsulphonyl fluoride, and 1 mM sodium vanadate), and supplemented with protease inhibitor cocktail (Cell Signaling Technology). Protein concentration was detected by a bicinchoninic acid (BCA) Protein Assay Kit (Pierce). […] The immunoreactive bands were detected with appropriate HRP-conjugated secondary antibodies. Band density was detected by enhanced chemiluminescence (ECL) detection system (Amersham/GE Healthcare). […]

In assay [7] the test system is Hep3B-Luc orthotopic tumors. The assay can be described thus: In vivo therapeutic efficacy in p53-null orthotopic HCC model (bioluminescence). More on the design: species or system athymic nude mice. To be noted: mRNA 750 μg/kg IV; everolimus 5 mg/kg oral; every three days, 4 rounds. How it is done:
In vivo therapeutic efficacy in p53-null orthotopic HCC model. To establish the orthotopic HCC model, luciferase-expressing Hep3B (Hep3B-Luc) cells were used. Six-week-old female athymic nude mice were obtained from Zhejiang Medical Academy Animal Center. Animal studies were conducted following the protocol approved by the Institutional Animal Ethics Committee of Hangzhou Normal University. First, anterior abdominal exposure was made and a cotton swab with iodine volts was used to sterilize this area. A one-centimeter-long midline incision was made along the anterior abdominal wall below the xiphoid after anesthesia by isoflurane, and ˜5×10^6 p53-null Hep3B-Luc cells in 50 μl of PBS were injected into the left lobe of the livers of the athymic nude mice (30 in total). The injection depth was not deeper than 2 mm. The inner and outer layers of the abdominal cavity were sutured one by one after tumor cell inoculation. […] The first treatment was performed at Day 0. On Day 12, all the mice were sacrificed. Mice were monitored for tumor growth by bioluminescent in vivo imaging every 6 days (Day 0, 6, and 12). To do this, these mice were injected intraperitoneally with 150 mg/kg D-luciferin substrate (PerkinElmer, Catalog #122799) and imaged by an IVIS Lumina S5 (PerkinElmer) imaging system.

Assay [8] deals with p53-null H1299 liver metastases. Put plainly: In vivo therapeutic efficacy in p53-null disseminated NSCLC model (liver metastases). Details: species or system athymic nude mice. The note with it: mRNA 750 μg/kg IV; everolimus 5 mg/kg oral; five rounds. How it is done:
In vivo therapeutic efficacy in p53-null disseminated NSCLC model. To establish the experimental disseminated metastatic model, ˜1×10^6p53-null H1299 cells in 100 μl of PBS were injected via tail vein into female athymic nude mice. […] The first treatment was performed at Day 0. On Day 15, all the mice were sacrificed, and one liver was randomly selected from each group for H&E staining. The liver section from each group was divided into four regions for calculation of the metastasis numbers (FIG. 55).

Where [9] appears, read: increasing everolimus concentrations.

Molecules are shown by their SMILES.

Take `N.N.[Cl][Pt][Cl]` [cisplatin]: the “cells dead / killed” value with A549 (p53 wild type) was “less than 50%”.
For `CO[C@H]1C[C@@H]2CC[C@@H](C)[C@@](O)(O2)C(=O)C(=O)N2CCCC[C@H]2C(=O)O[C@H]([C@H](C)C[C@@H]2CC[C@@H](OCCO)[C@H](OC)C2)CC(=O)[C@H](C)/C=C(\C)[C@@H](O)[C@@H](OC)C(=O)[C@H](C)C[C@H](C)/C=C/C=C/C=C/1C` [everolimus, Everolimus], the viability at 0.016 µM in the assay on p53-null H1299 cells [1] (Homo sapiens, NCI-H1299, mRNA 0.415 μg/ml, everolimus 16 nM) is greater than 80%. For the same compound, the cells still alive entry in the assay with p53-null H1299 cells [1] (at 64 nM) and in the assay on p53-null Hep3B cells [2] (at 64 nM) was “over 50%” in each case. In addition, the cell viability result in the assay on p53-null H1299 cells [1] (setting [9]) and in the assay on p53-null Hep3B cells [2] (setting [9]) was “no significant decrease in cell viability” in each case. The viability at 0.032 µM in the assay with p53-null Hep3B cells [2] (Homo sapiens, Hep3B, mRNA 0.415 μg/ml, everolimus 32 nM) was roughly 70%. Also, the cell apoptosis result with H1299 cells and with Hep3B cells was “moderate apoptotic cell death” in each case. Further, the “autophagy activation (WB, autophagosomes by TEM, GFP-LC3B by CLSM)” value with p53-null Hep3B cells [3] and with p53-null H1299 cells [4] was “activation of autophagy” throughout. In addition, the “LC3B-2 and LC3B-2/actin ratio (WB)” value in the assay with p53-null Hep3B cells [3] (increase of everolimus concentration) was “upregulation of LC3B-2 and higher LC3B-2/actin ratios”. Also, the “mTOR pathway targets (p-mTOR and p-p70S6K; WB)” value in the assay on p53-null Hep3B cells [3] (setting [9]) and in the assay on p53-null H1299 cells [4] (setting [9]) was “substantially blocked” throughout. Moreover, the tumor growth result in assay [5] is recorded as “moderate anti-tumor activity”. For the same compound, in assay [6], the “autophagy in tumors (LC3B-2 relative to actin, BECN1; WB)” value is on record as “induced autophagy”. For the same compound, the “orthotopic tumor growth / burden (bioluminescence)” value in [7] is “somewhat inhibited the growth of orthotopic tumors”. The “metastatic nodules in the liver” value in assay [8] is reported as “moderate effects”.
